Assay [1] addresses T1, eIF2Bα (Homo sapiens, UniProt Q14232).
T1 construct: made in house; host or cells: E. coli BL21(DE3)
T1 sequence (Q14232 1-305): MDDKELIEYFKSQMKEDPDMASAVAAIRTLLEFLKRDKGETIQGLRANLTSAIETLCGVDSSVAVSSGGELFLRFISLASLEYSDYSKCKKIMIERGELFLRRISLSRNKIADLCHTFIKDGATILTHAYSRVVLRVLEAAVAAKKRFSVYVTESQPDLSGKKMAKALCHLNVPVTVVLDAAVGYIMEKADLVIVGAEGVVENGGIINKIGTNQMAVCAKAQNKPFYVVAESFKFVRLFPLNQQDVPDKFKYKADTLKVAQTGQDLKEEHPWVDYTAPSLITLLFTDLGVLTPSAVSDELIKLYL
Description: MIDAS (mass spectrometry integrated with equilibrium dialysis) metabolite binding screen. The following applies: for MIDAS result (enrichment in the protein chamber / hit status): eIF2Bα2, 50 μM per metabolite pool, 40 h dialysis at 4 °C. The method in brief:
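Hits called at Storey q < 0.1 on z-scores of PCA-corrected log2 fold change between protein and metabolite chambers, quantified by FIA-MS in triplicate.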
On the technique in general: Equilibrium dialysis compares concentrations on both sides of a semipermeable membrane.

A further assay addresses T2, eIF2B (Homo sapiens, UniProt P49770+Q14232+Q9UI10).
T2 construct: made in house; host or cells: eIF2Bα: E. coli BL21(DE3)
Description: eIF2B GEF activity assay, unbiased metabolite screen (Bodipy-FL-GDP release). It counts as biochemical. The following applies: 10 μM metabolite. The method, then: Bodipy-FL-GDP-loaded eIF2 was used as a substrate for recombinant eIF2B. The assay was performed in 384-well plates. Reactions were read on a SpectraMax i3x plate reader (Molecular Devices) using the instrument’s Softmax Pro software with the following parameters: plate temperature = 25 °C; excitation wavelength = 485 nm (15 nm width); emission wavelength = 535 nm (25 nm width); read duration = 30 min at 45 s intervals. Data were analyzed in Prism. GDP release half-lives were calculated by fitting single-exponential decay curves.
For unbiased screening, MIDAS metabolite libraries at 10 mM stock concentration were dispensed into wells of the assay plate using an Echo Acoustic Liquid Handler (Labcyte). […] A single well was run for each metabolite. […] For targeted experiments with HEK293T lysates, the following conditions were used: 50 nM Bodipy-FL-GDP-loaded eIF2, 0.1 mM GDP, 1 mg/ml BSA, 0.1 or 0.3 mg/ml lysates.

In assay [2] the target is T1, eIF2Bα. As to the kind of experiment: Differential scanning fluorimetry (Protein Thermal Shift), eIF2Bα Tm. Type of assay: binding. The note with it: individual replicates Rep 1-4, control without metabolite about 64.1. As for the experimental part:
The effect of metabolite binding on eIF2Bα Tm was assessed using the Protein Thermal Shift assay (Thermo Fisher), following manufacturer’s instructions. Briefly, reaction conditions for each 20 μL reaction were: 1.1 μg (1.5 μM) of eIF2Bα, 5 μl Thermal Shift buffer, 1X Thermal Shift dye, and metabolites in dose response. Reactions were run in 384-well format on a QuantStudio 6 Flex instrument (Thermo Fisher). The resulting melt curves were analyzed using Protein Thermal Shift Software, and eIF2Bα Tms for each condition were calculated by fitting to the Boltzmann function.
(In general: In DSF a fluorescence change marks the thermal transition of the protein.)

Where [3] appears, read: MIDAS metabolite binding screen with eIF2Bα, sheet "eIF2Ba".
[4] abbreviates: MIDAS screen, sheet eIF2Ba, metabolites screened in pools 1-4, p-value and q-value given.

Several values for one entry are separate records, joined by “and”; a condition that tells them apart may be missing. Equal values may be shown once. Read-outs that look alike come from different tables or passages of the source.

T2 sequence (P49770 whole entry, one chain of several): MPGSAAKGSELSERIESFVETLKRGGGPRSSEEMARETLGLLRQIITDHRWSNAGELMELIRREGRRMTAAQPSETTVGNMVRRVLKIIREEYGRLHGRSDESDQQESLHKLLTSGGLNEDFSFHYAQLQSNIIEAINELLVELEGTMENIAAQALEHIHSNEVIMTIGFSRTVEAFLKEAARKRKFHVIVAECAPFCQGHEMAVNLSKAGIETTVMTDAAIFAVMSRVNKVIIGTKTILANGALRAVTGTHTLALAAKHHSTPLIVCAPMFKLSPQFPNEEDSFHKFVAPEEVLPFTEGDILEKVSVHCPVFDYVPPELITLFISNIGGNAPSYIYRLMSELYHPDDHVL
T2 sequence (Q9UI10 whole entry, one chain of several): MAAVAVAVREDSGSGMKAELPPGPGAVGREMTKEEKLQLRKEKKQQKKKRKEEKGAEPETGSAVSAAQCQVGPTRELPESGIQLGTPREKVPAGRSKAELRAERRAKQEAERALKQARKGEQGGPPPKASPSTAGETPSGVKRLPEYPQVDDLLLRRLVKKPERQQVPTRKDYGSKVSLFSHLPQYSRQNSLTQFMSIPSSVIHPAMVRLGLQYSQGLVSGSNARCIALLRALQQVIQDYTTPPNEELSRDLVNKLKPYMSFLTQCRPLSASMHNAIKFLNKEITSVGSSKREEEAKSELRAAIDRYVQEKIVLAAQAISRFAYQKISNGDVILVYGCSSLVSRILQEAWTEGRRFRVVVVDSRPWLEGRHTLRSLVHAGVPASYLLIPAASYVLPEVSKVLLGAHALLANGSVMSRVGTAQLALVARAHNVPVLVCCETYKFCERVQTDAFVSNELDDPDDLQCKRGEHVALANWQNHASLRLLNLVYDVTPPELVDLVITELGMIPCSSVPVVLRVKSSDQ
T2 sequence (Q9NR50 whole entry partner, one chain of several): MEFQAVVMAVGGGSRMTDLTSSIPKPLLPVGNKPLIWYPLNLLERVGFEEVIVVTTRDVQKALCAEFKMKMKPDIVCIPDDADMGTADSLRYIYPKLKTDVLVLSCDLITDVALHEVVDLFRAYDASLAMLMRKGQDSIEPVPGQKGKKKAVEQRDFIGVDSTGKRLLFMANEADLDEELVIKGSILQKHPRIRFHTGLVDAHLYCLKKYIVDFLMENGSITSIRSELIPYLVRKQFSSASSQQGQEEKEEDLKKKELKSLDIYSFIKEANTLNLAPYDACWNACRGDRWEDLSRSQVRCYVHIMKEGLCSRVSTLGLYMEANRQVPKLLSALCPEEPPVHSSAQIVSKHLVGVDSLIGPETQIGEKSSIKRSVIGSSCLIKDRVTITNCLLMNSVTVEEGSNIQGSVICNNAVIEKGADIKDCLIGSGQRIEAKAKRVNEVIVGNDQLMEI
T2 sequence (Q13144 whole entry partner, one chain of several): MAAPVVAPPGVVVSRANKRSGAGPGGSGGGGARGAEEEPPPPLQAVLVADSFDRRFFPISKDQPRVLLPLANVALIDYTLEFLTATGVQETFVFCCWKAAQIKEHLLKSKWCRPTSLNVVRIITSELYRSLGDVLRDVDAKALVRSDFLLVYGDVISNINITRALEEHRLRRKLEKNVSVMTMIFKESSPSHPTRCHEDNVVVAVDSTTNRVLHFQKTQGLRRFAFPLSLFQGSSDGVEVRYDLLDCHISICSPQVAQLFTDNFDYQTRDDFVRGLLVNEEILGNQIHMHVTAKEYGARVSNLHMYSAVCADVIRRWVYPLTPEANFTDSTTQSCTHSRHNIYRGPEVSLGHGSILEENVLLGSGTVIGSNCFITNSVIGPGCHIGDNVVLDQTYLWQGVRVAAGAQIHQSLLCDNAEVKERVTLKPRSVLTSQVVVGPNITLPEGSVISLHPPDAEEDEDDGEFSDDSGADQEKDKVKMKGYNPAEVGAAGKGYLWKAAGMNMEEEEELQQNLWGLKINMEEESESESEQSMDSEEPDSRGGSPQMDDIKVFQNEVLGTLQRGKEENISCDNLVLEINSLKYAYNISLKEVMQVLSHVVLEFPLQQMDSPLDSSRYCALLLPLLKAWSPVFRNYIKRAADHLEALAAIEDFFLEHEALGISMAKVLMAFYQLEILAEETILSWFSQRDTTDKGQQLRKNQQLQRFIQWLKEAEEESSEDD

On to `Nc1ncnc2c1ncn2[C@@H]1O[C@H](COP(=O)(O)OP(=O)(O)O)[C@@H](O)[C@H]1O` [ADP, Adenosine diphosphate], for which the “log2(corrected fold change)” value on eIF2Bα [1] (setting [3]) is reported as -0.09804. Also, the “effect on eIF2B GEF activity in the screen” value on eIF2B was “a hit in this functional assay screen”. For `O=C(COP(=O)(O)O)[C@@H](O)[C@H](O)[C@H](O)COP(=O)(O)O` [Fructose-1,6-bisphosphate], the “Tm of eIF2Bα” value at eIF2Bα [2] (0.33 mM metabolite) is 64.6451 °C and 64.2202 °C and 65.137 °C and 65.0552 °C; on eIF2Bα [2] (1 mM metabolite), 65.6845 °C and 64.643 °C and 66.191 °C and 66.0945 °C; on eIF2Bα [2] (3.3 mM metabolite), 65.4601 °C and 64.9088 °C and 65.6023 °C and 65.9064 °C; on eIF2Bα [2] (10 mM metabolite), 67.1254 °C and 66.1581 °C and 67.3047 °C and 67.21 °C. On to `N[C@@H](Cc1ccc(O)cc1)C(=O)O` [L-tyrosine], for which, at eIF2Bα [1], the “MIDAS result (enrichment in the protein chamber / hit status)” value is “most enriched metabolite identified”. Further, the “Tm of eIF2Bα” value at eIF2Bα [2] (0.33 mM metabolite) is 64.527 °C and 64.3045 °C and 63.9825 °C and 63.5986 °C; at eIF2Bα [2] (1 mM metabolite), 65.9465 °C and 65.8614 °C and 65.2637 °C and 64.606 °C; at eIF2Bα [2] (5 mM metabolite), 66.2946 °C and 66.2026 °C and 66.1461 °C and 65.4309 °C.

`O=C[C@H](O)[C@H](O)[C@H](O)COP(=O)(O)O` [Ribose-5-phosphate]: the “Tm of eIF2Bα” value at eIF2Bα [2] (0.33 mM metabolite) was 63.6082 °C and 63.1309 °C and 63.9035 °C and 63.9145 °C; on eIF2Bα [2] (1 mM metabolite) it was 65.8453 °C and 64.5885 °C and 66.0863 °C and 66.0043 °C; on eIF2Bα [2] (3.3 mM metabolite), 65.9356 °C and 65.2316 °C and 66.3491 °C and 65.7067 °C; at eIF2Bα [2] (10 mM metabolite), 67.199 °C and 66.1831 °C and 67.4737 °C and 67.2666 °C. Regarding `O=C(O)[C@@H]1C[C@@H](O)CN1` [Trans-4-Hydroxy-L-proline], the “log2(corrected fold change)” value at eIF2Bα [1] (setting [3]) is on record as 0.008003.

For the molecule `O=C(O)C/C=C/CC(=O)O` [Trans-beta-Hydromuconic acid], the “log2(corrected fold change)” value on eIF2Bα [1] (setting [4]) was found to be 0.04348. As for `NCCc1ccc(O)cc1` [Tyramine], the “log2(corrected fold change)” value on eIF2Bα [1] (setting [4]) came to 0.3274.

`CC(=O)N[C@H]1[C@@H](OP(=O)(O)OP(=O)(O)OC[C@H]2O[C@@H](n3ccc(=O)[nH]c3=O)[C@H](O)[C@@H]2O)O[C@H](CO)[C@@H](O)[C@@H]1O` [UDP-GlcNAc]: on eIF2Bα [1] (setting [3]), the “log2(corrected fold change)” value is recorded as -0.0409.

Consider `O=C(O)[C@H]1O[C@H](OP(=O)(O)OP(=O)(O)OC[C@H]2O[C@@H](n3ccc(=O)[nH]c3=O)[C@H](O)[C@@H]2O)[C@H](O)[C@@H](O)[C@@H]1O` [UDP-Glucuronate], for which the “log2(corrected fold change)” value at eIF2Bα [1] (setting [4]) is recorded as -0.09562. As for `O=c1ccn([C@@H]2O[C@H](COP(=O)(O)O)[C@@H](O)[C@H]2O)c(=O)[nH]1` [UMP, Uridine monophosphate], the “log2(corrected fold change)” value on eIF2Bα [1] (setting [4]) was 1.855. Moreover, at eIF2Bα [1], the “MIDAS result (enrichment in the protein chamber / hit status)” value is “a strong hit in MIDAS”. In addition, the “Tm of eIF2Bα” value is 64.124 °C and 63.8726 °C and 64.7063 °C and 64.4005 °C at eIF2Bα [2] (0.33 mM metabolite); 65.4937 °C and 64.6631 °C and 66.2688 °C and 66.0835 °C on eIF2Bα [2] (1 mM metabolite); 67.0947 °C and 66.2443 °C and 67.297 °C and 67.2174 °C on eIF2Bα [2] (5 mM metabolite). Besides, at eIF2B, the “effect on eIF2B GEF activity in the screen” value was “a hit in this functional assay screen”. As to `O=c1cc[nH]c(=O)[nH]1` [Uracil], the “log2(corrected fold change)” value on eIF2Bα [1] (setting [4]) was -0.07123. With `NC(N)=O` [Urea], the “log2(corrected fold change)” value at eIF2Bα [1] (setting [4]) was -0.06736. Turning to `O=c1[nH]c(=O)c2[nH]c(=O)[nH]c2[nH]1` [Uric acid], on eIF2Bα [1] (setting [4]), the “log2(corrected fold change)” value is -0.09817. Turning to `O=c1ccn([C@@H]2O[C@H](COP(=O)(O)OP(=O)(O)O)[C@@H](O)[C@H]2O)c(=O)[nH]1` [Uridine 5-diphosphate], the “log2(corrected fold change)” value on eIF2Bα [1] (setting [4]) is on record as -0.03147. Turning to `O=c1ccn([C@@H]2O[C@H](COP(=O)(O)OP(=O)(O)OP(=O)(O)O)[C@@H](O)[C@H]2O)c(=O)[nH]1` [Uridine 5-triphosphate], the “log2(corrected fold change)” value at eIF2Bα [1] (setting [3]) was -0.0457.

For the molecule `O=c1ccn([C@@H]2O[C@H](CO)[C@@H](O)[C@H]2O)c(=O)[nH]1` [Uridine], on eIF2Bα [1] (setting [3]), the “log2(corrected fold change)” value is given as 0.009821.

With `O=c1[nH]c(=O)c2nc[nH]c2[nH]1` [Xanthine], the “log2(corrected fold change)” value at eIF2Bα [1] (setting [4]) was -0.1163. On to `O=c1[nH]c(=O)c2ncn([C@@H]3O[C@H](COP(=O)(O)O)[C@@H](O)[C@H]3O)c2[nH]1` [Xanthosine 5-monophosphate], for which the “log2(corrected fold change)” value on eIF2Bα [1] (setting [4]) is listed as -0.169. On to `OC[C@H]1O[C@@H](n2cnc3c(O)nc(O)nc32)[C@H](O)[C@@H]1O` [Xanthosine], for which, at eIF2Bα [1] (setting [3]), the “log2(corrected fold change)” value is 0.0001312. Turning to `O=C(O)c1cc(O)c2cccc(O)c2n1` [Xanthurenic acid], on eIF2Bα [1] (setting [3]), the “log2(corrected fold change)” value was -0.07533.

In the case of `OC[C@@H](O)[C@H](O)[C@@H](O)CO` [Xylitol], the “log2(corrected fold change)” value on eIF2Bα [1] (setting [4]) is recorded as -0.08707. As to `CCC(C)C(=O)NCC(=O)O` (centres unmarked) [a-Methylbutyrylglycine], the “log2(corrected fold change)” value on eIF2Bα [1] (setting [3]) is -0.07333.

With `O=C(O)/C=C(/CC(=O)O)C(=O)O` [cis-Aconitic acid], on eIF2Bα [1] (setting [3]), the “log2(corrected fold change)” value is on record as 0.003317. On to `O=c1ccn([C@H]2C[C@H](O)[C@@H](COP(=O)(O)OP(=O)(O)OP(=O)(O)O)O2)c(=O)[nH]1` [dUTP], for which the “log2(corrected fold change)” value on eIF2Bα [1] (setting [4]) is on record as -0.4569. As to `N[C@@H](Cc1ccc(O)c(I)c1)C(=O)O` [iodotyrosine], the “MIDAS result (enrichment in the protein chamber / hit status)” value at eIF2Bα [1] is given as “significantly enriched”. Consider Benzoate, for which the “log2(corrected fold change)” value at eIF2Bα [1] (setting [4]) came out at 0.4135.

In the case of Cytidine monophosphate, the “log2(corrected fold change)” value at eIF2Bα [1] (setting [4]) amounted to 1.354.

For the molecule D-Glucose 6-phosphate, the “log2(corrected fold change)” value on eIF2Bα [1] (setting [4]) is recorded as -0.1344.

With Glucose-6-phosphate, the “Tm of eIF2Bα” value on eIF2Bα [2] (0.33 mM metabolite) is 64.7198 °C and 64.0494 °C and 65.062 °C and 64.7755 °C; at eIF2Bα [2] (1 mM metabolite), 65.3152 °C and 64.2994 °C and 65.8081 °C and 65.8236 °C; at eIF2Bα [2] (3.3 mM metabolite), 65.2749 °C and 64.6195 °C and 65.7728 °C and 65.1105 °C; on eIF2Bα [2] (10 mM metabolite), 66.5112 °C and 65.3473 °C and 66.6482 °C and 66.6125 °C. Consider Orotidine 5-monophosphate, for which, at eIF2Bα [1], the “log2(corrected fold change)” value was determined as 0.07073. As to PIP2, at eIF2Bα [1] (setting [4]), the “log2(corrected fold change)” value was 0.1728.

For PIP3, the “log2(corrected fold change)” value on eIF2Bα [1] (setting [4]) is 0.2943. Take Phosphatidic Acid: the “log2(corrected fold change)” value on eIF2Bα [1] (setting [4]) was determined as 0.1983. Turning to Phosphatidylcholine, the “log2(corrected fold change)” value on eIF2Bα [1] (setting [4]) was -0.03855. As for Phosphatidylethanolamine, on eIF2Bα [1] (setting [4]), the “log2(corrected fold change)” value is reported as 0.09167. As for Phosphatidylglycerol, the “log2(corrected fold change)” value on eIF2Bα [1] (setting [4]) worked out at 0.1451. Consider Phosphatidylserine, for which the “log2(corrected fold change)” value at eIF2Bα [1] (setting [4]) was 0.1166. For Stachyose, the “log2(corrected fold change)” value on eIF2Bα [1] (setting [3]) is -0.02264.

Source of the values: PMC8187479, “Sugar phosphate activation of the stress sensor eIF2B” (Nature Communications, 2021).
